Measurements from patent US9957311B2, “Surface-binding peptide” (TIKOMED AB, priority 2013, dated 2018).
Entries after “also recorded” stand apart in the source; their conditions may differ.

How the values were obtained:
Assay type in all cases: cell-based
[1] = system: integrin β3; test: Immunocytochemistry of integrin β3 in MC3T3-E1 cells on peptide-coated Ti; conditions: after 72 h of culture, FIG. 12
Procedure: (§1) Under aseptic conditions, implants were immersed in a 3:7 (v/v) HNO3-DI water solution for 30 min at room temperature. Then, they were rinsed with milliQ water and placed in a covered milliQ water bath for 24 h. Implants were dried with N2 and were placed in a 96-well plates. Then, 200 μl of 50 μg/ml peptide solutions in PBS were added to each implant. Adsorption took place for 24 h at 37° C. in a humidified atmosphere. After 24 h peptide solutions were collected and surfaces were washed with 200 μl of PBS and air-dried in order to perform in vitro experiments.
MC3T3-E1 cells were routinely cultured at 37° C. in a humidified atmosphere of 5% CO2, and maintained in α-MEM supplemented with 10% FBS and antibiotics (50 IU penicillin/ml and 50 μg streptomycin/ml). 7.0×10^3 cells were seeded on the peptide-coated implants. Trypan blue stain was used to determine total and viable cell number. The same number of cells was cultured in parallel in plastic culture plates in the experiment. All experiments were performed after 4 passages of the MC3T3-E1 cells.
Cells grown for 24 and 72 h on the surfaces were fixed for 15 min with 4% formaldehyde in PBS at room temperature. Cells were incubated with 0.1% Triton X-100 for 5 min, 1% bovine serum albumin for 30 min and then with anti-integrin beta-3 antibody for 1 h at 1:50 dilution in PBS. Then, a Cy3-conjugated goat anti-rabbit IgG was used as secondary antibody for 1.5 h at 1:200 dilution in PBS. For actin cytoskeleton visualization, cells were stained with phalloidin-FITC 5 μg/mL in PBS for 30 min. Cells were washed with PBS and coin-shaped samples were placed on slides. Finally, a drop of Fluoroshield with DAPI was added and cover glasses were mounted on the samples. Two samples of each group were used to perform the experiment and two images of each sample were taken with the confocal microscope (Leica DMI 4000B equipped with Leica TCS SPE laser system).

[2] = system: MC3T3-E1 cells; test: DNA quantification (cell number) of cells on peptide-coated Ti; conditions: 48 h culture on Ti coated with 50 μg/ml peptide, FIG. 9
Procedure: as §1, with “Absorption” for “Adsorption”, “cell” for “in vitro”, “experiments. The surfaces were denoted Ti (uncoated Ti), P1 (Ti coated with IP10-RGD), P2 (Ti coated with IP10mut-RGD), P3 (Ti coated with IP10-RGDmut) and P4 (Ti coated with IP10mut-RGDmu).” for “experiments.”
MC3T3-E1 cells were routinely cultured at 37° C. in a humidified atmosphere of 5% CO2, and maintained in α-minimum essential medium (α-MEM) supplemented with 10% fetal bovine serum (FBS) and antibiotics (50 IU penicillin/ml and 50 μg streptomycin/ml). 7.0×10^3 cells were seeded on the peptide-coated implants. Trypan blue stain was used to determine total and viable cell number. The same number of cells was cultured in parallel in plastic culture plates in the experiment. All experiments were performed after 15 passages of the MC3T3-E1 cells.
Culture media was removed from wells and plates were frozen at −80° C. until the experiment was carried out. At the day of analysis, 100 μl of distilled water were added to each well. Plates were incubated for 1 hour at room temperature. Again, plates were frozen at −80° C. to lysate cells. Plates were thawed until reaching room temperature and 100 μl of Hoechst 33258 at 20 μg/ml in THE buffer were added. Then, 200 μl aliquots were transferred to 96-well fluorescence plates and a spectrophotometer was set to record fluorescence. Relative fluorescence units were correlated with the cell number using a linear standard curve.

[3] = system: Integrin α8 (Itga8); test: Real-time RT-PCR gene expression in MC3T3-E1 cells on peptide-coated Ti; conditions: after 72 h of cell culture, FIG. 11
Procedure: (§2) Under aseptic conditions, implants were immersed in a 3:7 (v/v) HNO3-DI water solution for 30 min at room temperature. Then, they were rinsed with milliQ water and placed in a covered milliQ water bath for 24 h. Implants were dried with N2 and were placed in a 96-well plates. Then, 200 μl of 50 μg/ml peptide solutions in PBS were added to each implant. Adsorption took place for 24 h at 37° C. in a humidified atmosphere. After 24 h peptide solutions were collected and surfaces were washed with 200 μl of PBS and air-dried in order to perform in vitro experiments. […]
(§3) Total RNA was isolated using Tripure, according to the manufacturer's protocol. Total RNA was quantified at 260 nm using a Nanodrop spectrophotometer. […]
(§4) Each reaction contained 7 μl Lightcycler-FastStart DNA MasterPLUS SYBR Green I (containing Fast Start Taq polymerase, reaction buffer, dNTPs mix, SYBRGreen I dye and MgCl2), 0.5 μM of each, the sense and the antisense specific primers and 3 μl of the cDNA dilution in a final volume of 10 μl. […] After each cycle, fluorescence was measured at 72° C. […]
(§5) All samples were normalized by the geometric mean of the expression levels of 18S rRNA and Gapdh and fold changes were related to day 1 of culture using the mathematical model described by Pfaffl, A new mathematical model for relative quantification in real-time RT-PCR, Nucleic Acids Research 2001, 29: e45: […]

[4] = system: integrin β3 (Itgb3); test: as above; conditions: after 72 h of cell culture, FIG. 11
Procedure: as §2, §3, §4, §5

## MKKKGEGGGGGGGGRGDS (IP-10 derived peptide connected to RGD motif via poly-G-linker) [Peptide P1, surface P1 = Ti coated with it]
[1]
  integrin β3 staining: allowed integrin β3 visualization; also recorded: highest integrin β3 staining; also recorded: allowed specific anti-integrin β3 staining
[2]
  number of cells (DNA quantification): highest number of cells
[3]
  expression of Itga8 compared with uncoated surfaces: increased gene expression
[4]
  expression of Itgb3 compared with uncoated surfaces: increased gene expression
